Results as given in patent US20240122853A1, “COMPOSITION FOR PENETRATING BLOOD-BRAIN BARRIER, CONTAINING SONOSENSITIVE LIPOSOMES AS ACTIVE INGREDIENTS” (IMGT CO, LTD., priority 2021, published 2024).

Assay: Evans blue penetration after blood-brain barrier opening by ultrasound and microbubbles
Type: in vivo, BALB/c nude mice
Protocol: To derive the optimal ultrasound conditions for opening the blood-brain barrier (BBB), the degree of opening of the blood-brain barrier was compared and analyzed using Evans blue. Evans blue is a very small dye with a molecular weight of 961 Da and is widely used for analyzing the degree of opening of the blood-brain barrier. The experiment was performed using normal BALB/c nude mice, and after injecting microbubbles via intravenous injection, ultrasound was emitted using a high-intensity focused ultrasound device, VIFU2000. […] The brain tissue was soaked in formamide, incubated overnight at 70° C. to extract Evans blue in the brain tissue, and the degree of opening of the blood-brain barrier was quantitatively analyzed by measuring the absorbance at wavelengths of 670 nm and 740 nm using UV-vis.
Factors that can affect the cavitation of ultrasound and microbubbles, a mechanism that opens the blood-brain barrier, include ultrasound conditions such as the frequency, intensity, duty cycle, and ultrasound emission time of the ultrasound, and also the number of microbubbles. Therefore, to confirm the ultrasound conditions and the number of microbubbles that can open the blood-brain barrier, the degree of opening of the blood-brain barrier according to the number of microbubbles was first quantitatively analyzed. […]

Cc1cc(-c2ccc(/N=N/c3ccc4c(S(=O)(=O)O)cc(S(=O)(=O)O)c(N)c4c3O)c(C)c2)ccc1/N=N/c1ccc2c(S(=O)(=O)O)cc(S(=O)(=O)O)c(N)c2c1O [Evans blue]
Penetration efficiency into brain depending on number of microbubbles (1 MHz, 1 W, DC 5%, PRF 1 Hz, 60 s, 2, 5, 10 × 10^6/g microbubbles, brain 24 hours later): improving the penetration efficiency of Evans blue | Penetration effect into brain depending on ultrasound intensity and emission time (microbubbles 5×10^6/g, 1-3 W, duty cycle 1-10%, 60-180 s): increased proportionally
